The data set can be described thus: Serum concentration over time after transdermal application of the drug patch on microporated skin (FIG. 10a, 10b). The data set is classed as in vivo. The settings on record: over a short period of about two hours. The text has this:
The drug is entering the permeation surface by passive diffusion. The amount of drug entering the permeation surface is mainly determined by the permeation surface A(t) over time, as long as the patch 5 provides a sufficient amount of drug. Preferably the patch 5 is able to provide much larger quantities of drug than the permeation surface A(t) is able to absorb. Preferably the patch 5 is able to provide a sufficient concentration level of the permeant at the permeation surface over a period of time during with the permeant is applied. Therefore, the serum concentration as a function of time can be determined by an appropriate poration of the skin 1 with an initial microporation.
FIG. 10a to 10b show the administration of the same drug, for example 100 mg acetylsalicylic acid, the drug being arranged on the skin 1 as disclosed in FIG. 3c. Depending on the permeation surface A(t) as a function of time, the level of the serum concentration as well as the time period within which the drug is released, can be predescribed. In FIG. 10a the permeation surface A(t), not shown in detail, is chosen such that the maximal serum concentration is about 25 g/l over a short period of time of about two hours. […]

The values below come from patent US20090306576A1, “System for Transmembrane Administration of a Permeant and Method for Administering a Permeant” (Pantec Biosolutions AG, priority 2005, published 2009).

Molecules are shown by their SMILES.

`CC(=O)Oc1ccccc1C(=O)O` [acetylsalicylic acid]: the maximal serum concentration entry reads like this: (FIG. 10a, 100 mg acetylsalicylic acid on porated skin (transdermal application TD)) “about 25 g/l”; (FIG. 10b, fast application (turbo), 100 mg acetylsalicylic acid on porated skin) “about 30 g/l”.
